According to patent US20240287080A1 (IDEAYA Biosciences Inc., priority 2021, published 2024):

Biological target: T1, Pol theta (1-899) (Homo sapiens, UniProt O75417)
T1 construct: Pol theta (1-899) (5 nM) in assay buffer
Test: Pol theta ATPase activity, NADH oxidation-coupled enzymatic assay (ATPase NADH coupling: Standard Screening: hPolQ)
Format: biochemical
Details: Pol theta (1-899) 5 nM, NADH oxidation-coupled ATPase assay; compounds of Table 3
Procedure, shortened: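 Rates of ATP hydrolysis taken from 60-min A340 traces of NADH oxidation via PK/LDH coupling, then fit four-parameter for IC50, Hill slope and max inhibition. Enzyme (5 nM, 1-899) and compounds preincubated 15 min before ATP 100 μM and 50-thymine ssDNA 300 nM (stock, equal volume added).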

T1 sequence (O75417 1-899): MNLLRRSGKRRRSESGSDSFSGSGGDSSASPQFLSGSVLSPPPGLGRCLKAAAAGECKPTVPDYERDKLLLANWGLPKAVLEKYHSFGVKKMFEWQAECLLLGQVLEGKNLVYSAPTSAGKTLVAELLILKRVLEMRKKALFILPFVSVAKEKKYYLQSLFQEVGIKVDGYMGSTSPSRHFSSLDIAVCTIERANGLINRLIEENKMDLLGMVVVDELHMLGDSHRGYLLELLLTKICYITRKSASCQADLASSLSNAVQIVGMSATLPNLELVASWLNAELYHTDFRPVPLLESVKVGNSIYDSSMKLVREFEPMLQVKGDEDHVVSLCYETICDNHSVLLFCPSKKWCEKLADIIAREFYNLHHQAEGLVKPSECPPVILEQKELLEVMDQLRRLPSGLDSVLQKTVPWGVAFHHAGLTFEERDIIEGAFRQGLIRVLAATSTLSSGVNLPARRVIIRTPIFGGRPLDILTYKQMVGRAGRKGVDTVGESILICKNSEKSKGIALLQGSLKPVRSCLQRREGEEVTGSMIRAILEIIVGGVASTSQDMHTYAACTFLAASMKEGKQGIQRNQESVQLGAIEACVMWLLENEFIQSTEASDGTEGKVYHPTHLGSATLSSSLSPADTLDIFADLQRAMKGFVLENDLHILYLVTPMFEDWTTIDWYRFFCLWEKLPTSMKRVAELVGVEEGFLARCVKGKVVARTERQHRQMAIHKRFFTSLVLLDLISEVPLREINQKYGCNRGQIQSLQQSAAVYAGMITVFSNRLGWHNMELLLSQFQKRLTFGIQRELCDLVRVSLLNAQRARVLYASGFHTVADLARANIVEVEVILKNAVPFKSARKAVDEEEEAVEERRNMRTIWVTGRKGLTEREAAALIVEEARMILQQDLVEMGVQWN

SMILES | IC50 [nM]
COc1cnc(C)c(F)c1-c1cc(C)ncc1C(=O)Nc1nnc(O[C@H]2CC[C@@H](CO)CC2)s1 [Example 257, 3′-fluoro-N-(5-(((1s,4s)-4-(hydroxymethyl)cyclohexyl)oxy)-1,3,4-thiadiazol-2-yl)-5′-methoxy-2′,6-dimethyl-[4,4′-bipyridine]-3-carboxamide] | ≤ 200
COc1cnc(C)c(F)c1-c1cc(C)ncc1C(=O)Nc1nnc(O[C@@H]2CCC[C@H](O)C2)s1 (single isomer, unassigned) [Example 255] | ≤ 200
COc1cnc(Br)cc1-c1cc(C)ncc1C(=O)Nc1nnc(O[C@H]2CCC[C@@H](O)C2)s1 (single isomer, unassigned) [Example 244] | ≤ 200

Now from value to compound:

IC50 [nM] | SMILES
1000 to 10000 | COc1cnc(C)cc1-c1cc(C)ncc1C(=O)Nc1nnc(O)s1 [Example 325, N-(5-hydroxy-1,3,4-thiadiazol-2-yl)-5′-methoxy-2′,6-dimethyl-[4,4′-bipyridine]-3-carboxamide]
≤ 200 | COc1cnc(Cl)cc1-c1cc(C)ncc1C(=O)Nc1nnc(OC2([C@H]3CCOC3)CC2)s1 (single isomer, unassigned) [Example 297]
500 to 1000 | COc1nnc(NC(=O)c2cnc(C)cc2-c2cccc(F)c2C#N)s1 [Example 430, 4-(2-cyano-3-fluorophenyl)-N-(5-methoxy-1,3,4-thiadiazol-2-yl)-6-methylpyridine-3-carboxamide]
1000 to 10000 | COc1nnc(NC(=O)c2cnc(C)cc2-c2ccn(C)c(=O)c2)s1 [Example 351, N-(5-methoxy-1,3,4-thiadiazol-2-yl)-1′,6-dimethyl-2′-oxo-1′,2′-dihydro-[4,4′-bipyridine]-3-carboxamide]
500 to 1000 | COc1nnc(NC(=O)c2cnc(C)cc2-c2cccc3[nH]ncc23)s1 [Example 335, 4-(1H-indazol-4-yl)-N-(5-methoxy-1,3,4-thiadiazol-2-yl)-6-methylnicotinamide]
≤ 200 | COc1cnc(Cl)cc1-c1cc(C)ncc1C(=O)Nc1nnc(O[C@@H]2CCCN([C@@H]3CCOC3)C2)s1 [Example 264, 2′-chloro-5′-methoxy-6-methyl-N-(5-(((R)-1-((R)-tetrahydrofuran-3-yl)piperidin-3-yl)oxy)-1,3,4-thiadiazol-2-yl)-[4,4′-bipyridine]-3-carboxamide]
≤ 200 | COc1cnc(Cl)cc1-c1cc(C)ncc1C(=O)Nc1nnc(O[C@H]2CC[C@@]23CCOC3)s1 (racemic) [Example 292, rac-N-(5-(((1S,4S)-6-oxaspiro[3.4]octan-1-yl)oxy)-1,3,4-thiadiazol-2-yl)-2′-chloro-5′-methoxy-6-methyl-[4,4′-bipyridine]-3-carboxamide]
1000 to 10000 | COc1nnc(NC(=O)c2cnc(C)cc2-c2cn[nH]c2)s1 [Example 451, N-(5-methoxy-1,3,4-thiadiazol-2-yl)-6-methyl-4-(1H-pyrazol-4-yl)nicotinamide]
200 to 500 | COc1nnc(NC(=O)c2cc(N(C)C)ncc2-c2cc(Cl)ncc2OC)s1 [Example 311, 2′-chloro-6-(dimethylamino)-5′-methoxy-N-(5-methoxy-1,3,4-thiadiazol-2-yl)-[3,4′-bipyridine]-4-carboxamide]
1000 to 10000 | COc1nnc(NC(=O)c2cnc(C)cc2-c2ccc(C#N)nc2C)s1 [Example 434, 6-cyano-N-(5-methoxy-1,3,4-thiadiazol-2-yl)-2,6′-dimethyl-[3,4′-bipyridine]-3′-carboxamide]
1000 to 10000 | COc1nnc(NC(=O)c2cnc(C)cc2-c2cnccc2C(F)(F)F)s1 [Example 481, N-(5-methoxy-1,3,4-thiadiazol-2-yl)-6′-methyl-4-(trifluoromethyl)-[3,4′-bipyridine]-3′-carboxamide]
1000 to 10000 | COc1nnc(NC(=O)c2cnc(C)cc2-c2cccc(N3CCOCC3)c2)s1 [Example 415, N-(5-methoxy-1,3,4-thiadiazol-2-yl)-6-methyl-4-[3-(morpholin-4-yl)phenyl]pyridine-3-carboxamide]
1000 to 10000 | COc1nnc(NC(=O)c2cnc(C)cc2-c2cnc(C#N)cc2C)s1 [Example 413, 6-cyano-N-(5-methoxy-1,3,4-thiadiazol-2-yl)-4,6′-dimethyl-[3,4′-bipyridine]-3′-carboxamide]
500 to 1000 | COc1ccc(F)c(-c2cc(C)ncc2C(=O)Nc2nnc(OC)s2)c1 [Example 447, 4-(2-fluoro-5-methoxyphenyl)-N-(5-methoxy-1,3,4-thiadiazol-2-yl)-6-methylpyridine-3-carboxamide]
1000 to 10000 | COc1nnc(NC(=O)c2cnc(C)cc2-c2cncc(C(=O)N(C)C)c2)s1 [Example 483, N3′-(5-methoxy-1,3,4-thiadiazol-2-yl)-N5,N5,6′-trimethyl-[3,4′-bipyridine]-3′,5-dicarboxamide]
1000 to 10000 | COc1nnc(NC(=O)c2cnc(C)cc2-c2cnc(N(C)C)nc2)s1 [Example 458, 4-(2-(dimethylamino)pyrimidin-5-yl)-N-(5-methoxy-1,3,4-thiadiazol-2-yl)-6-methylnicotinamide]
500 to 1000 | COc1nnc(NC(=O)c2cnc(C)cc2-c2cc(C)cc(C)c2)s1 [Example 358, 4-(3,5-dimethylphenyl)-N-(5-methoxy-1,3,4-thiadiazol-2-yl)-6-methylpyridine-3-carboxamide]
≤ 200 | COc1cnc(Cl)cc1-c1cc(C)ncc1C(=O)Nc1nnc(O[C@@H]2CCCN([C@H]3CCOC3)C2)s1 [Example 275, 2′-chloro-5′-methoxy-6-methyl-N-(5-(((R)-1-((S)-tetrahydrofuran-3-yl)piperidin-3-yl)oxy)-1,3,4-thiadiazol-2-yl)-[4,4′-bipyridine]-3-carboxamide]
1000 to 10000 | COc1nnc(NC(=O)c2cnc(C)cc2-c2ccc(F)c(F)c2)s1 [Example 354, 4-(3,4-difluorophenyl)-N-(5-methoxy-1,3,4-thiadiazol-2-yl)-6-methylpyridine-3-carboxamide]
1000 to 10000 | COc1nnc(NC(=O)c2cnc(C)cc2-c2ccc3c(c2)CNC3=O)s1 [Example 379, N-(5-methoxy-1,3,4-thiadiazol-2-yl)-6-methyl-4-(1-oxo-2,3-dihydro-1H-isoindol-5-yl)pyridine-3-carboxamide]

Same assay, conditions: Table 4; Pol theta (1-899) 5 nM, ATP, dT50 ssDNA

IC50 [nM] | SMILES
200 to 500 | COc1nnc(NC(=O)c2cnc(C)cc2-c2cc(Cl)ccc2CO)s1 [Example 66, 4-(5-chloro-2-(hydroxymethyl)phenyl)-N-(5-methoxy-1,3,4-thiadiazol-2-yl)-6-methylnicotinamide]
≤ 200 | COc1nnc(NC(=O)c2cnc(C)cc2-c2cc(Cl)ncc2OC)s1 [Example 5, 2′-chloro-5′-methoxy-N-(5-methoxy-1,3,4-thiadiazol-2-yl)-6-methyl-(4,4′-bipyridine)-3-carboxamide]
≤ 200 | COc1nnc(NC(=O)c2cnc(C)cc2-c2c(F)cccc2OC)s1 [Example 2, 4-(2-fluoro-6-methoxyphenyl)-N-(5-methoxy-1,3,4-thiadiazol-2-yl)-6-methylpyridine-3-carboxamide]

Same assay, conditions: Table 5; Pol theta (1-899) 5 nM, ATP, dT50 ssDNA

IC50 [nM] | SMILES
≤ 200 | COc1cnc(Cl)cc1-c1cc(C)ncc1C(=O)Nc1nnc(O[C@H]2CO[C@@H](C)C2)s1 (single isomer, unassigned) [Example 191]
≤ 200 | COc1cnc(Cl)cc1-c1cc(C)ncc1C(=O)Nc1nnc(O[C@H]2COCC2(F)F)s1 (single isomer, unassigned) [Example 128]
≤ 200 | COc1cnc(Br)cc1-c1cc(C)ncc1C(=O)Nc1nnc(O[C@@H]2COC3(CC3)C2)s1 (single isomer, unassigned) [Example 226]
500 to 1000 | COc1cnc(Cl)cc1-c1cc(C2CCCC2)ncc1C(=O)Nc1nnc(O[C@@H]2CCOC2)s1 [Example 134, (R)-2′-chloro-6-cyclopentyl-5′-methoxy-N-(5-((tetrahydrofuran-3-yl)oxy)-1,3,4-thiadiazol-2-yl)-(4,4′-bipyridine)-3-carboxamide]
≤ 200 | COc1cnc(Cl)c(F)c1-c1cc(C)ncc1C(=O)Nc1nnc(O[C@@H]2CCOC2)s1 [Example 80, 2′-chloro-3′-fluoro-5′-methoxy-6-methyl-N-(5-(((R)-tetrahydrofuran-3-yl)oxy)-1,3,4-thiadiazol-2-yl)-(4,4′-bipyridine)-3-carboxamide]
≤ 200 | COc1cnc(Cl)cc1-c1cc(C)ncc1C(=O)Nc1nnc(O[C@@H]2CO[C@@H](C)C2)s1 (single isomer, unassigned) [Example 190]
≤ 200 | Cc1cc(-c2cc(Cl)ncc2OC(F)F)c(C(=O)Nc2nnc(O[C@H]3CCOC3)s2)cn1 [Example 83, (S)-2′-chloro-5′-(difluoromethoxy)-6-methyl-N-(5-((tetrahydrofuran-3-yl)oxy)-1,3,4-thiadiazol-2-yl)-(4,4′-bipyridine)-3-carboxamide]
1000 to 10000 | COc1nnc(NC(=O)c2cnc(C)cc2-c2ccnc3nccn23)s1 [Example 88, 4-(imidazo(1,2-a)pyrimidin-5-yl)-N-(5-methoxy-1,3,4-thiadiazol-2-yl)-6-methylnicotinamide]
200 to 500 | COc1nnc(NC(=O)c2cnc(C)cc2-c2cccc(Cl)c2)s1 [Example 102, 4-(3-chlorophenyl)-N-(5-methoxy-1,3,4-thiadiazol-2-yl)-6-methylnicotinamide]

SMILES | IC50 [nM]
COc1cnc(Cl)cc1-c1cc(C)ncc1C(=O)Nc1nnc(OC2CC(C)(O)C2)s1 (mixture of isomers) [Example 176, 2′-chloro-N-(5-(3-hydroxy-3-methylcyclobutoxy)-1,3,4-thiadiazol-2-yl)-5′-methoxy-6-methyl-(4,4′-bipyridine)-3-carboxamide] | ≤ 200

Same assay, conditions: Table 5; values given as bound; Pol theta (1-899) 5 nM, ATP, dT50 ssDNA

IC50 [nM] | SMILES
> 10000 | COc1nnc(NC(=O)c2cnc(C)cc2-c2cccc3scnc23)s1 [Example 98, 4-(benzo(d)thiazol-4-yl)-N-(5-methoxy-1,3,4-thiadiazol-2-yl)-6-methylnicotinamide]
